Source: ChEMBL document CHEMBL1155874, “Carbonic anhydrase activators: Activation of the human cytosolic isozyme III and membrane-associated isoform IV with amino acids and amines” (Bioorg Med Chem Lett, 2008)

Legend:
[1] = tested on: N[C@@H](Cc1c[nH]cn1)C(=O)O; test: (§1) Activity of human recombinant CA1 at 10 uM by stopped-flow CO2 hydration method
[2] = tested on: N[C@H](Cc1c[nH]cn1)C(=O)O; test: as §1
[3] = molecular target: Carbonic anhydrase 1 (Homo sapiens) (UniProt P00915); test: Activation of human recombinant CA1 at 10 uM by stopped-flow CO2 hydration method
[4] = molecular target: Carbonic anhydrase 2 (Homo sapiens) (UniProt P00918); test: Activation of human recombinant CA2 at 10 uM by stopped-flow CO2 hydration method
[5] = molecular target: Carbonic anhydrase 3 (Homo sapiens) (UniProt P07451); test: Activation of human recombinant CA3 at 10 uM by stopped-flow CO2 hydration method
[6] = molecular target: Carbonic anhydrase 4 (Homo sapiens) (UniProt P22748); test: Activation of human recombinant truncated CA4 at 10 uM by stopped-flow CO2 hydration method
[7] = tested on: N[C@@H](Cc1c[nH]cn1)C(=O)O; test: (§2) Activity of human recombinant CA2 at 10 uM stopped-flow CO2 hydration method
[8] = tested on: N[C@H](Cc1c[nH]cn1)C(=O)O; test: as §2

Sequence of Carbonic anhydrase 4 (Homo sapiens) (P22748 whole entry, the tested form may be a part): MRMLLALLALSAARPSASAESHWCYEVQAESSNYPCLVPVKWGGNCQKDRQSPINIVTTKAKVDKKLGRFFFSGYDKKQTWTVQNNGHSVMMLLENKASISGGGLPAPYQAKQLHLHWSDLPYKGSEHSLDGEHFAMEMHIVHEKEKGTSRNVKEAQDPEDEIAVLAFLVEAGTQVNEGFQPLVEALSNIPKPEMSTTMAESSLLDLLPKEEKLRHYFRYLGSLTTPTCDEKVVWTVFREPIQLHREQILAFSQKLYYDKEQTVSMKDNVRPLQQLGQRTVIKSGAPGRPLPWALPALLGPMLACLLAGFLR
Sequence of Carbonic anhydrase 3 (Homo sapiens) (P07451 whole entry, the tested form may be a part): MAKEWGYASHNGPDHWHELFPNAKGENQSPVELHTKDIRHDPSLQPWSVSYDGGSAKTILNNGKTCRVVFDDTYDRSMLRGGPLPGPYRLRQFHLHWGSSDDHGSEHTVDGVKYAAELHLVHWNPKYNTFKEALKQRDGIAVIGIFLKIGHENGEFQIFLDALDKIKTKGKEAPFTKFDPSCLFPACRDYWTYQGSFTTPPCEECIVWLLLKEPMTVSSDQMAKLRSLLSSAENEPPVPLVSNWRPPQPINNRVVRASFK
Sequence of Carbonic anhydrase 1 (Homo sapiens), P00915 (P00915 whole entry): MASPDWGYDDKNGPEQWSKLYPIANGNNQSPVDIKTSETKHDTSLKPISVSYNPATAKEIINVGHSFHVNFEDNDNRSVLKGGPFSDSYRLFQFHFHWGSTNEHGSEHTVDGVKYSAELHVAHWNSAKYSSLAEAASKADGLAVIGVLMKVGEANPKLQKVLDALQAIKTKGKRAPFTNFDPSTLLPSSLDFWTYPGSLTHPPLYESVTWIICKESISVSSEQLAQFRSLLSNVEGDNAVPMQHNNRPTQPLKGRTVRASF
Sequence of Carbonic anhydrase 1 (Homo sapiens) (P00915 2-261 limits assumed): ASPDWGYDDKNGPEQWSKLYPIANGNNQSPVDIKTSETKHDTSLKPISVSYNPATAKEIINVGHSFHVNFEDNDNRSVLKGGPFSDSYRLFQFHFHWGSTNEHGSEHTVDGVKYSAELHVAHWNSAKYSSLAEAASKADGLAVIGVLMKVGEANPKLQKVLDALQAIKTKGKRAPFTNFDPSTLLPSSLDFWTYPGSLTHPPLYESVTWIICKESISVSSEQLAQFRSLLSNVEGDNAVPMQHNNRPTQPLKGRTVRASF

With “Carbonic anhydrase 1 (Homo sapiens), P00915” as the compound, how does the kcat [1] read?
The kcat was 13.4 ×10⁵ /s.

What about the kcat [2] of the same compound?
Its kcat is 9.1 ×10⁵ /s.

With `CNCC(O)c1ccc(O)c(O)c1` (single isomer, unassigned) as the compound, how does the Ka [3] read?
The Ka was 0.09 µM.

What about the Ka [4] of the same compound?
The Ka was 96 µM.

What about the Ka [5] of the same compound?
The Ka was 36.4 µM.

And the Ka [6]?
The Ka was 45 µM.

Which results are given for `N[C@H](Cc1c[nH]c2ccccc12)C(=O)O`?
Ka [5]: 19 µM; Ka [6]: 39.6 µM

With `N[C@@H](Cc1ccc(O)c(O)c1)C(=O)O` as the compound, how does the Ka [5] read?
The Ka was 13.5 µM.

What about the Ka [6] of the same compound?
The Ka was 15.3 µM.

For `N[C@H](Cc1ccc(O)c(O)c1)C(=O)O`, which Ka [5] is on record?
Its Ka is 28.7 µM.

What about the Ka [6] of the same compound?
Its Ka is 34.7 µM.

How did the Ka [5] turn out when `NCCc1c[nH]c2ccc(O)cc12` was run?
Its Ka is 0.78 µM.

And the Ka [6]?
The Ka was 3.14 µM.

Which results are given for `NCc1ccccn1`?
Ka [5]: 1.03 µM; Ka [6]: 5.19 µM

Which results are given for “Carbonic anhydrase 2 (Homo sapiens) (from UniProt P00918)”?
kcat [7]: 4.3 ×10⁶ /s; kcat [8]: 2.7 ×10⁶ /s

How did the Ka [5] turn out when `N[C@H](Cc1c[nH]cn1)C(=O)O` was run?
Its Ka is 1.12 µM.

What about the Ka [6] of the same compound?
Its Ka is 12.3 µM.

How did the Ka [5] turn out when `N[C@@H](Cc1c[nH]cn1)C(=O)O` was run?
The Ka was 35.9 µM.

And the Ka [6]?
The Ka was 7.3 µM.

Which Ka [3] does the source give for `NCCc1c[nH]cn1` here?
The Ka was 2.1 µM.

And the Ka [5]?
The Ka was 36.9 µM.

What about the Ka [6] of the same compound?
Its Ka is 25.3 µM.

Which results are given for `N[C@@H](Cc1c[nH]c2ccccc12)C(=O)O`?
Ka [5]: 20.5 µM; Ka [6]: 37.1 µM

How did the Ka [5] turn out when `NCCN1CCNCC1` was run?
Its Ka is 0.32 µM.

And the Ka [6]?
The Ka was 24.9 µM.

For `NCCc1ccccn1`, which Ka [5] is on record?
The Ka was 1.1 µM.

And the Ka [6]?
Its Ka is 7.13 µM.

With `NCCN1CCOCC1` as the compound, how does the Ka [5] read?
The Ka was 0.091 µM.

What about the Ka [6] of the same compound?
Its Ka is 1.3 µM.

`Nc1ccc(C[C@H](N)C(=O)O)cc1` was tested. Which Ka [5] did it give?
The Ka was 43.2 µM.

And the Ka [6]?
The Ka was 0.079 µM.

Which Ka [5] does the source give for `NCCc1ccc(O)c(O)c1` here?
The Ka was 33.2 µM.

And the Ka [6]?
The Ka was 30.9 µM.

What does the source list for `N[C@@H](Cc1ccc(O)cc1)C(=O)O`?
Ka [5]: 34.1 µM; Ka [6]: 25.1 µM
